From US10206905B2, “Use of composition for preparing a medicament for treatment of amyotrophic lateral sclerosis” (priority 2015, dated 2019)
Marks after values point to notes of the source that are not given here.

What was measured:
[1] = test system: SOD1-G93A mice; assay: Onset time and survival time of SOD1-G93A mice (Example 1); assay type: in vivo; details: for Survival Time Extension: i.p. once a day from age 70 d, versus SOD1-G93A control; for Onset Time / Survival Time: i.p. once a day from age 70 d until death
Source text: (§1) The transgenic mice (B6SJL-TgN[SOD1-G93A] 1Gur) carrying humanized copper/zinc superoxide dismutase (SOD1) (G93A mutants) and wild-type B6SJL F1 mice are purchased from Nanjing University. The breed conversation and propagation methods of the mice: one wild-type female mouse and one transgenic male mouse are allowed to mate with each other, with their progeny identified through polymerase chain reaction (PCR) with DNA extracted from the tail of young mice.
5 B6SJL-TgN(SOD1-G93A)1Gur male mice were allowed to mate with B6SJLF1 female healthy mice in a ratio of 1 male to 3 females beginning at the age of 60 d. DNA was extracted from the progeny mice tail-cutting (as required in the kits), plus SOD1 primers 5′ -[…]-3 ′ and 5 ′ -[…] AAGTGA-3 ′ were amplified through 30 PCR cycles, confirming SOD1 gene strips between 200˜300bp. Mice without SOD1 mutant gene were eliminated.
(§2) Calculated based on the effective doses of edaravone (SOD1-G93Amousel5 mg/kg, SOD1-H46R rat 3-6mg/kg) and those on cerebral ischemic animal models (SD rat 6 mg/kg) according to the literature, the dosage of edaravone was set at 12 mg/kg, then the dosage of the composition of edaravone and borneol was set at 15 mg/kg (the dosage of edaravone was set at 12 mg/kg, borneol was 3 mg/kg), and borneol was set at 3 mg/kg.
(§3) SOD1 genetic mutant mice at the age of 70 d were divided randomly into 4 groups according to their motor functions. Respectively: the SOD1 genetic mutation control group; the treating group of the composition of edaravone and borneol at 15 mg/kg; the treating group of edaravone at 12 mg/kg; the treating group of borneol at 3 mg/kg; another B6SJL healthy mice control group without SOD lgenetic mutation was additionally set. There was 14 mice each group, half of males and half of females.
From the day of grouping, animals in each group were dosed by intraperitoneal injection once a day, until death. Animals in the healthy control group and the SOD1 genetic mutation control group were given saline of equal volumes.
It was determined as muscle strength decline when the time of the mice keeping on the rotarod decreased by over 30% compared with the former time determined. The onset time of the mice was determined according to the variation of this motor function and the observation of the anterior limbs of the mice with or without tremor. When the mice have lain on their backs on smooth planes for 30 s and cannot righting reflex, or there was serious infection in one or both eyes, then the mice may be judged as death and sacrificed. The time from birth to death of a mouse was the survival time of the mouse.
It was assessed whether there was a synergistic effect between edaravone and borneol in the composition according to the Jong-eun's formula, q=E(a+b)/(Ea+Eb−Ea×Eb). In the formula, E(a+b) is the effective rate of the combined drugs, Ea, Eb is the effective rate of A drug, B drug used alone, respectively. If q value was in the range of 0.85˜1.15, indicating the sum of the combined two drugs; q value >1.15 indicating enhancement, and q value <0.85 indicating there was an antagonistic effect when two drugs were used together.

[2] = test system: SOD1-G93A mice; assay: Rota-rod motor function of SOD1-G93A mice (Example 1); assay type: in vivo; details: p<0.05, FIG. 1
Experimental: According to the methods reported in literatures, mice were placed on the Rota-rod (60 Hz/min, Φ190 mm), and the time from being placed on the Rota-rod to dropping was recorded. Each mouse was determined for 3 times at each time point, with the longest time of mouse keeping on the rotating rod reflecting the motor function of the mouse, the determination was stopped if the time was over 180s, calculated as 180s. The motor functions of the mice with SOD1 mutant gene were determined beginning at the age of 60 d. Thereafter, they were observed and determined every 10 days, until death.
as §2
SOD1 genetic mutant mice at the age of 70 d were divided randomly into 4 groups according to their motor functions. […]

[3] = test system: SOD1-G93A mice; assay: Passive avoidance test of learning and memory in SOD1-G93A mice (Example 2); assay type: in vivo; details: memory experiment; for Latency period after entering the dark room versus model group: age about 90 d, FIG. 2; for Number of step-through errors versus model group: FIG. 3
Source text: as §1, with “(G93A mutants)and” for “(G93A mutants) and”, “mouse were” for “mouse are”
as §2, with “(SOD1-G93Amouse 15” for “(SOD1-G93Amousel5”, “3-6 mg/kg)” for “3-6mg/kg)”
as §3, with “SOD1 genetic” for “SOD lgenetic”
From the day of grouping, animals in each group were dosed by intraperitoneal injection once a day, until the behavior test has been completed. Animals in the healthy control group and the SOD1 genetic mutation control group were given saline of equal volumes.
The passive avoidance test was performed when the animals were at the age of about 90 d to determine their abilities of learning and memory. The experimental device was divided into two rooms, bright and dark. […] The mice were placed into the bright room with face back to the hole in the test, the timer was initiated at the same time, and the animals entered the dark room through passing the hole, subjecting to the electric shock (0.19 mA), the recorded time was the latency period, meanwhile recording the number of step-through errors in 5 min after the mice got into the dark room. The memory experiment was carried out on the third day, the time from placing each mouse into the bright room to entering the dark room was recorded, if the mouse didn't enter the dark room in 5 min, then the latency period was recorded as 300s, meanwhile recording the number of step-through errors in 5 min after the mice got into the dark room.
It was assessed whether there was a synergistic effect between edaravone and borneol in the composition according to the Jong-eun's formula, q=E(a+b)/(Ea+Eb−Ea×Eb). […]

[4] = test system: SOD1-H46R rat; details: according to the literature; cited from earlier work
[5] = test system: amyotrophic lateral sclerosis; details: clinical phase-III study NCT00330681; primary endpoint not reached; cited from earlier work
[6] = test system: cerebral ischemic animal models; details: SD rat, according to the literature; cited from earlier work
[7] = test system: SOD1-G93A mice; assay: Motor function scores of SOD1-G93A mice (Example 3); assay type: in vivo; details: p<0.05, FIG. 5
[8] = test system: SOD1-G93A mice; assay: Onset time and survival time of SOD1-G93A mice (Example 3); assay type: in vivo
Experimental: The transgenic mice with amyotrophic lateral sclerosis (B 6 SJL-Tg(SOD1*G93A)1Gur/JNj u, hereinafter referred to as SOD1-G93 A mice) and the wild-type control mice were purchased from Nanjing Biomedical Research Institute of Nanjing University.
Dosing to animals was initiated from the age of 10 weeks, keeping on the whole survival period. Each dosage of the composition and the positive drug edaravone group was dosed by intraperitoneal injection once a day. […] Animals in the wild control group and the model group were given the corresponding volumes of solvents by intraperitoneal injection.
From the age of 10 weeks, the body weight, the motor function (motor ability score, rotarod test) of animals had been monitored once a week. Two consecutive rod droppings in the animal rotarod test had been considered as the sign of the onset of animal diseases. It was defined as the end of a disease to euthanasia when the animal cannot get righting in 30 seconds after being laid on one side.
The body weight, the motor ability score, the variation of the rod drop latency period with the time in the rotarod test, the onset time, and the survival time were considered as the indexes of observing the disease progress.

[9] = test system: SOD1-G93A mice; assay: Rotarod test drop time of SOD1-G93A mice (Example 3); assay type: in vivo; details: p<0.05, FIG. 6
[10] = test system: mutant SOD1 G93A mice; details: cited from earlier work
[11] = test system: SOD1-G93A mice; assay: Body weight of SOD1-G93A mice (Example 3); assay type: in vivo; details: 100 μg/ml in drinking water; age 21 weeks; p<0.05; FIG. 4
[12] = 15 mg/kg/d i.p. once a day from age 10 weeks, mean ± standard error
[13] = 100 μg/ml in drinking water, age 16-21 weeks

For `CC1(C)C2CCC1(C)C(O)C2` (stereo not shown) [Borneol, 2-camphol], the “Effect on the survival time versus model group” value ([1]; 3 mg/kg/d i.p. from age 70 d) was “no statistical difference compared with the model group”, the “Survival Time Extension” value ([1]; 3 mg/kg/d) was 2.9 days and the “Onset Time” value ([1]; 3 mg/kg/d) was 113.1 ± 2.5 days. The “Survival Time” value ([1]; 3 mg/kg/d) was 141.3 ± 3.6 days, the “Survival Time” value ([1]; 3 mg/kg/d, listed as borneol) was 141.3 ± 3.6 days and the “Rotarod time versus model group” value ([2]; 3 mg/kg/d i.p., only at age 130 d) was “different significantly from the model group”. For the same molecule, the “Latency period after entering the dark room versus model group” value ([3]; 3 mg/kg/d i.p. from 70 d) was “not obvious” and the “Number of step-through errors versus model group” value ([3]; 3 mg/kg/d i.p.) was “not obvious”.
With `CC1=NN(c2ccccc2)C(=O)C1` [Edaravone, 3-methyl-1-phenyl-2-pyrazolin-5-one] the “Effect on the survival time versus model group” value ([1]; 12 mg/kg/d i.p. from age 70 d) was “extending the survival time of the mice significantly”, the “Influence on the onset time of the mice” value ([1]; 12 mg/kg/d i.p. from age 70 d) was “no influence on the onset time” and the “Survival Time Extension” value ([1]; 12 mg/kg/d) was 6.2 days. For the same molecule, the “Onset Time” value ([1]; 12 mg/kg/d) was 113.7 ± 2.6 days, the “Survival Time” value ([1]; 12 mg/kg/d) was 144.6 ± 3.7 days and the “Survival Time” value ([1]; 12 mg/kg/d, listed as edaravone) was 144.6 ± 3.7 days. For the same molecule, the Effective dose [4] was 3 to 6 mg/kg, the “ALSFRS-R score versus placebo group” value [5] was “decreased less than the placebo group, there was no significant difference” and the “Rotarod time (muscle strength, motor function) versus model control group” value ([2]; 12 mg/kg/d i.p., age 110, 120, 130 d) was “significantly slow the decline of the muscle strength”. For the same molecule, the Effective dose [6] was 6 mg/kg, the “Motor function scores versus model group” value ([7]; 15 mg/kg/d i.p., age 17, 20, 21 weeks) was “significantly higher than in the model group” and the “Onset Time” value [8, 12] was 111.3 ± 10.0 days. The “Survival Time” value [8, 12] was 151.7 ± 9.7* d, the “Survival Time Extension” value ([8]; 15 mg/kg/d i.p., versus SOD1-G93A control) was 9.4 days and the “Drop time in the rotarod test versus model group” value ([9]; 15 mg/kg/d i.p., age 16, 19, 20, 21 weeks) was “markedly longer than in the model group”. For the same molecule, the “Progression of the symptoms and degeneration of neuron” value ([10]; Exp Neurol. 2008, 213(2):448-55) was “capable of slowing the progression of the symptoms”, the Effective dose ([10]; SOD1-G93A mouse, according to the literature) was 15 mg/kg and the “Latency period after entering the dark room versus model group” value ([3]; 12 mg/kg/d i.p. from 70 d, p<0.05) was “extended significantly”. The “Number of step-through errors versus model group” value ([3]; 12 mg/kg/d i.p., p<0.05) was “decreased significantly”.
For `Nc1nc2ccc(OC(F)(F)F)cc2s1` [Riluzole], the “Motor function scores versus model group” value [7, 13] was “significantly higher than in the model group”, the “Weight of animals versus model control group” value [11] was “significantly higher than in the model control group” and the “Onset Time” value ([8]; 100 μg/ml in drinking water from age 10 weeks, mean ± standard error) was 109.2 ± 9.4 days. The “Drop time in the rotarod test versus model group” value [9, 13] was “longer than in the model group markedly”.
